The text below walks through data of patent US9358226B2, “Triarylmethane analogs and their use in treating cancers” (Emory University, priority 2007, dated 2016).

The test system of assay [1] is ang-2 mRNA. As to the kind of experiment: Quantitative reverse transcription-PCR for ang-2 in bEnd.3 cells. The class given is cell-based, murine. To be noted: 6.5 hours. As to the method:
bEnd.3 cells were seeded equally into six T-75 flasks and 24 hours later were treated with 0, 1, 5, 10, 15, and 20 μM concentrations of gentian violet (Sigma-Aldrich, no. G2039) in ethanol for 6.5 hours. RNA was extracted and purified using TRI reagent (Sigma-Aldrich, T9424) and measured using spectrophotometer (Perkin-Elmer UV/VIS, Wellesley, Mass.). RNA (1 μg) was used for DNase Amplification (Invitrogen, no. 18068-015, Carlsbad, Calif.) followed by first-strand synthesis for reverse transcription-PCR (Invitrogen SuperScript, no. 12371-019). 96-well Optical Reaction Plate (ABI PRISM, no. 128, Applied Biosystems, Foster City, Calif.) was used for the reverse transcription-PCR reaction. A measure of 2.5 μl of template, which had been diluted 1:10 in crosslinked water, was used in each well and the experiment was performed in triplicate. Ang pt2 (Applied Biosystems, Taqman Gene Expression Assay, Mm00545822_ml) and 18S (Applied Biosystems Taqman Gene Expression Assay, Hs99999901_sl) primers were used along with crosslinked molecular grade water (Cellgro, Mediatech, Inc., Herndon, Va.) and master mix (Applied Biosystems TaqMan Fast Universal PCR Master Mix (2^x)). The reaction was run on the 7900 Applied Biosystems Reader for Absolute Quantification for 96-well plates. C values were analyzed by ΔΔCt method, and the standard error of the mean was calculated (FIG. 3b). The same protocol was used for treatment with brilliant green (Sigma, no. B6756), except that the concentrations used were 0, 0.1, 0.25, 0.5, and 0.75 μM (FIG. 3a).

In assay [2] the test system is P. falciparum Dd2 (Multidrug Resistant). In words: Malaria model, multidrug resistant P. falciparum. As to conditions: Plasmodium falciparum, DD2; read-out: IC50 (nM) vs P. falciparum Dd2 (Multidrug Resistant). The class given is cell-based. The method, then:
The compounds were tested in a malaria model using both chloroquine sensitive and multidrug resistant P. falciparum. The malaria model was the same as published in JAC Advance Access published online on Jul. 30, 2008, Journal of Antimicrobial Chemotherapy, doi:10.1093/jac/dkn315, the contents of which are hereby incorporated by reference, and the data is summarized in the table below.
Briefly, the assay involves exposing both chloroquine sensitive and multidrug resistant P. falciparum to the compounds. After one hour of exposure to the highest concentration of the compound, followed by removal of the compound, the growth of all stages of P. falciparum was observed. The reduction in the growth stages was then compared with untreated control parasites. […] The presence of strong inhibition (defined herein as 10% growth) of all parasite stages was evaluated when the parasites were exposed to various concentrations of various compounds.

In assay [3] the target is T1, Nox4 (Homo sapiens, UniProt Q9NPH5).
T1 construct: expressed in transfected cells; host or cells: HEK293 Nox4-11 cells
T1 sequence (Q9NPH5 1-578): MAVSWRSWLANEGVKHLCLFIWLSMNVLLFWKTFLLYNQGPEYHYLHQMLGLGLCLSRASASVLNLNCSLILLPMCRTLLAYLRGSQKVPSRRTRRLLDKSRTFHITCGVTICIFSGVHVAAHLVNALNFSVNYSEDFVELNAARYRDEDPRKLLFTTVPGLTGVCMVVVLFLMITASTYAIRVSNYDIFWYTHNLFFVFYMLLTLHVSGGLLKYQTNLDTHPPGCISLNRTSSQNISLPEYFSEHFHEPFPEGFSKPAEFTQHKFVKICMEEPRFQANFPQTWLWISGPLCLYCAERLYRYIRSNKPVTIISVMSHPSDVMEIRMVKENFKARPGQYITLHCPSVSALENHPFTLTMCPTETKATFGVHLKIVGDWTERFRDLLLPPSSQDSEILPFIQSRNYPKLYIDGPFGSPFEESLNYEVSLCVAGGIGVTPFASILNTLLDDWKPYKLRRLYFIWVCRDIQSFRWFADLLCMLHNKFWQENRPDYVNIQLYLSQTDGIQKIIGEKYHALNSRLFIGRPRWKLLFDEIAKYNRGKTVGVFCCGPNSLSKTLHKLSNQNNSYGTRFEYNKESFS
T1 sequence (P13498 2-195 partner limits assumed): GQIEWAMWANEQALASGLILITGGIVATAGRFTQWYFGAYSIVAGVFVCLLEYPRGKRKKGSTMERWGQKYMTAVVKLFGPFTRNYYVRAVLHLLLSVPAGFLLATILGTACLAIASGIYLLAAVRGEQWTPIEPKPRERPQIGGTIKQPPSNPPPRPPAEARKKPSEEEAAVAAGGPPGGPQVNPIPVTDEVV
In words: H2O2 production, homovanillic acid assay, HEK293 Nox4-11 cells. The class given is cell-based. To be noted: 1 hour 37° C. The method, then:
After 1 hour incubation at 37° C., the reaction was stopped and H2O2 production was measured using the homovanillic acid assay. The ability of these drugs to inhibit production of H2O2 is shown as a percentage relative to the untreated control (100%). […] Optimal Nox2 activity requires phorbol 12-myristate 13-acetate stimulation whereas Nox4 activity is constitutive.
H2O2 release was measured using the homovanillic acid assay as described previously (Martyn, 2006). Briefly, 1.5-1.75×10^5 cells/well of a 12-well plate were seeded. The following day, cells were washed once with Hank's balanced salt solution and then preincubated for 15 minutes with either gentian violet (10-20 nM) or brilliant green (0.5-1.0 μM) in 1 ml of media. The cells were then washed once with Hank's balanced salt solution. Gentian violet or brilliant green was added at the same concentrations as in pretreatment to 0.5 ml of homovanillic acid assay solution (100 μM homovanillic acid assay, 4 U/ml horseradish peroxidase in Hank's balanced salt solution with Ca^2+ and Mg^2+) and incubated with the cells for 1 hour at 37° C. Cos-phox cells were additionally stimulated with 0.4 μg/ml phorbol 12-myristate 13-acetate. […] Fluorescence was read on a BioTek Synergy HT (BioTek Instruments Inc., Winooski, Vermont, […].) with an excitation of 320 nm and emission of 440 nm.

Each structure is given as a SMILES string.

As usually defined, the IC50 is the concentration that gives 50% inhibition.

For `CN(C)c1ccc(C(=C2C=CC(=[N+](C)C)C=C2)c2ccc(N(C)C)cc2)cc1` [Gentian Violet (GV), hexamethyl pararosaniline chloride], the “ang2 expression compared to control” value in assay [1] (1 and 5 μM) is reported as “increased”. Also, the “inhibition of ang-2 mRNA” value in assay [1] (higher concentrations (above 5 μM, up to 20 μM)) is recorded as 70-90%. The IC50 in assay [2] came to 0.44 nM. Besides, the “inhibition of Nox4 activity (H2O2 production)” value in assay [3] is “inhibited”.
